From patent US12295936B2, “Immunomodulating urea azalides” (Zoetis Services LLC, priority 2020, dated 2025)
Values after ≈ are worked out from the molar mass of the structure shown. Like-named read-outs stand apart in the source and are kept apart here.

What was measured:
IL-6 = assay: Plasma IL-6 biomarker in bovine M. haemolytica challenge; conditions: bovine, in vivo
P. multocida [1] = assay: Murine P. multocida intranasal challenge study with lung tissue RNA sequence analysis; type: in vivo, mice; conditions: subcutaneous 18 hours after challenge (5×10^3 CFU/mouse): tulathromycin 16 mg/kg, M9 32 mg/kg, ceftiofur 9 mg/kg; placebo 0%
Description: In one murine P. multocida intranasal challenge study, mice were administered tulathromycin (16 mg/kg; T02), M9 (32 mg/kg; T03), or ceftiofur (9 mg/kg; T04) by subcutaneous injection 18 hours after bacterial challenge (5×10^3 CFU/mouse) for lung tissue RNA sequence analysis. Survival at Day 7 was about 80%, 50%, and 90% for T02, T03, and T04, respectively, compared to placebo at 0%. Differential gene expression from total lung tissue RNA sequence analysis indicated at least 226 unique genes were up or down regulated (with significance) for T03. Output from ingenuity pathway analysis of these unique genes predicted major upstream regulators of the involved pathways. Data was analyzed based on the number of genes being modulated in the same direction that were associated with a given upstream regulator. An activation z-score of 2 or greater is considered significant and the direction change is indicated by +(activated) or − (inhibited). The top 5 pathways included: IL-9 signaling, glucocorticoid receptor signaling, prolactin signaling, JAK STAT signaling, and IL-17 signaling. The top 6 upstream regulators (activation z-score) included: lipopolysaccharide (−6.725), TNF (−4.669), IFNG (−5.759), IL-1β (−5.947), STAT1 (−2.787), and poly rl:rC-RNA (−5.289). Even though this study was run in the murine model, the top upstream regulators identified as being modulated by M9 include an almost ubiquitous overlap with the pathways identified in the natural disease study as being key mediators in BRD, and therefore is modulating highly relevant pathways in BRD pathobiology.

P. multocida [2] = assay: In-vitro MIC model (CLSI broth micro-dilution); conditions: Pasteurella multocida, ATCC43137, read-out: Comparative MIC's, P. multocida ATCC 43137
E. coli = assay: In-vitro MIC model (CLSI broth micro-dilution); conditions: Escherichia coli, ATCC25922, read-out: Comparative MIC's, E. coli ATCC 25922
M. haemolytica = assay: In-vitro MIC model (CLSI broth micro-dilution); conditions: Mannheimia haemolytica

## CCCNC[C@]1(O)[C@H](C)O[C@@H](O[C@H]2[C@H](C)[C@@H](O[C@@H]3O[C@H](C)C[C@H](N(C)C)[C@H]3O)[C@](C)(O)C[C@@H](C)CN[C@H](C)[C@@H](O)[C@](C)(O)[C@@H](CC)OC(=O)[C@@H]2C)C[C@@]1(C)OC [Tulathromycin, (2R,3S,4R,5R,8R,10R,11R,12S,13S,14R)-11-(((2S,3R,4S,6R)-4-(dimethylamino)-3-hydroxy-6-methyltetrahydro-2H-pyran-2-yl)oxy)-2-ethyl-3,4,10-trihydroxy-13-(((2R,4R,5S,6S)-5-hydroxy-4-methoxy-4,6-dimethyl-5-((propylamino)methyl)tetrahydro-2H-pyran-2-yl)oxy)-3,5,8,10,12,14-hexamethyl-1-oxa-6-azacyclopentadecan-15-one]
IL-6
  IL-6 levels (plasma) in bovine M. haemolytica challenge: significantly reduced
P. multocida [1]
  Survival at Day 7: about 80%
P. multocida [2]
  MIC: 1 µg/mL (≈ 1.24 µM)
E. coli
  MIC: 2 µg/mL (≈ 2.48 µM)
M. haemolytica; ATCC33396, read-out: Comparative MIC's, M. haemolytica ATCC 33396
  MIC: 1 µg/mL (≈ 1.24 µM)
M. haemolytica; read-out: Comparative MIC's, M. haemolytica 12726
  MIC: 2 µg/mL (≈ 2.48 µM)
M. haemolytica; read-out: Comparative MIC's, M. haemolytica 46571*
  MIC: 1 µg/mL (≈ 1.24 µM)
